In ChEMBL document CHEMBL4414548 (J Med Chem, 2019):

Experiments:
[1] = Cmax in mouse at 10 mg/kg, po after 7 hrs; assay type: ADME, organism-based; parameters: dose 10 mg/kg, route oral; details: in vivo
[2] = Partition coefficient, log P of compound by HPLC analysis; assay type: physicochemical; details: octanol/water
JAK1/TYK2 = JAK1/TYK2 (Homo sapiens, UniProt P23458+P29597); experiment: Inhibition of TYK2/JAK1 in IFNalpha-stimulated human Kit225 cells by steady-glo luciferase assay
[3] = Half life in mouse liver microsomes; assay type: ADME, Microsome
[4] = Efflux ratio of permeability in human Caco2; assay type: ADME, cell-based; details: Caco-2
[5] = target: T1, Non-receptor tyrosine-protein kinase TYK2 (Homo sapiens, UniProt P29597); experiment: Inhibition of TYK2 JH2 domain in human whole blood assessed as inhibition of IFNalpha-induced STAT5 phosphorylation preincubated for 1 hr followed by IFNalpha stimulation and measured after 15 mins by fluorescence assay; assay type: tissue-based
JAK2/TYK2 = JAK2/TYK2 (Homo sapiens, UniProt O60674+P29597); experiment: Inhibition of TYK2/JAK2 in IL23-stimulated human Kit225 cells by steady-glo luciferase assay
[6] = AUClast in mouse at 10 mg/kg, po after 7 hrs; assay type: ADME, organism-based; parameters: time < 7 hr, dose 10 mg/kg, route oral; details: in vivo
[7] = Half life in cynomolgus monkey liver microsomes; assay type: ADME, Macaca fascicularis, Microsome
[8] = Half life in dog liver microsomes; assay type: ADME, Canis lupus familiaris, Microsome
[9] = target: T1, Non-receptor tyrosine-protein kinase TYK2; experiment: Inhibition of fluorescein-labeled kinase tracer binding to His-TVMV-fused TYK2 JH2 domain (575 to 869 residues) (unknown origin) measured after 90 mins by HTRF assay
[10] = Half life in rat liver microsomes; assay type: ADME, Microsome
[11] = target: Non-receptor tyrosine-protein kinase TYK2 (Mus musculus, UniProt Q9R117); experiment: Inhibition of TYK2 JH2 domain in mouse whole blood assessed as inhibition of IFNalpha-induced STAT1 phosphorylation preincubated for 1 hr followed by IFNalpha stimulation and measured after 15 mins by fluorescence assay; assay type: tissue-based
[12] = Permeability across apical to basolateral side in human Caco2 cells; assay type: ADME, cell-based; details: Caco-2, read-out: permeability
[13] = target: Voltage-gated inwardly rectifying potassium channel KCNH2 (Homo sapiens, UniProt Q12809); experiment: Inhibition of human ERG by fluorescence polarization assay
[14] = Half life in human liver microsomes; assay type: ADME, Microsome
[15] = target: Mast/stem cell growth factor receptor Kit (Homo sapiens, UniProt P10721); experiment: Inhibition of cKIT (unknown origin)
[16] = target: T1, Non-receptor tyrosine-protein kinase TYK2; experiment: Inhibition of TYK2 JH1 domain (unknown origin)
[17] = target: Tyrosine-protein kinase JAK2 (Homo sapiens, UniProt O60674); experiment: Inhibition of JAK2 JH1 domain (unknown origin)
[18] = target: Tyrosine-protein kinase JAK1 (Homo sapiens, UniProt P23458); experiment: Inhibition of JAK1 JH1 domain (unknown origin)
[19] = Metabolic stability in human liver microsomes assessed as parent compound remaining after 10 mins; assay type: ADME, Microsome; details: read-out: Stability
[20] = Metabolic stability in rat liver microsomes assessed as parent compound remaining after 10 mins; assay type: ADME, Microsome; details: read-out: Stability
JAK2/JAK1 = JAK2/JAK1 (Homo sapiens, UniProt O60674+P23458); experiment: Inhibition of JAK1/JAK2 (unknown origin) in GM-CSF stimulated cells by cell based assay
[21] = Metabolic stability in mouse liver microsomes assessed as parent compound remaining after 10 mins; assay type: ADME, Microsome; details: read-out: Stability
JAK3/JAK1 = JAK3/JAK1 (Homo sapiens, UniProt P23458+P52333); experiment: Inhibition of JAK1/JAK3 (unknown origin) in IL-2 stimulated cells by cell based assay
[22] = target: 3',5'-cyclic-AMP phosphodiesterase 4D (Homo sapiens, UniProt Q08499); experiment: Inhibition of [3H]cAMP binding to recombinant human His-Tb fused PDE4D2 (86 to 413 residues) expressed in Escherichia coli using [3H]cAMP as substrate preincubated for 10 mins followed by [3H]cAMP addition and measured after 1 hr by scintillation proximity assay

T1 sequence (P29597 whole entry, the tested form may be a part): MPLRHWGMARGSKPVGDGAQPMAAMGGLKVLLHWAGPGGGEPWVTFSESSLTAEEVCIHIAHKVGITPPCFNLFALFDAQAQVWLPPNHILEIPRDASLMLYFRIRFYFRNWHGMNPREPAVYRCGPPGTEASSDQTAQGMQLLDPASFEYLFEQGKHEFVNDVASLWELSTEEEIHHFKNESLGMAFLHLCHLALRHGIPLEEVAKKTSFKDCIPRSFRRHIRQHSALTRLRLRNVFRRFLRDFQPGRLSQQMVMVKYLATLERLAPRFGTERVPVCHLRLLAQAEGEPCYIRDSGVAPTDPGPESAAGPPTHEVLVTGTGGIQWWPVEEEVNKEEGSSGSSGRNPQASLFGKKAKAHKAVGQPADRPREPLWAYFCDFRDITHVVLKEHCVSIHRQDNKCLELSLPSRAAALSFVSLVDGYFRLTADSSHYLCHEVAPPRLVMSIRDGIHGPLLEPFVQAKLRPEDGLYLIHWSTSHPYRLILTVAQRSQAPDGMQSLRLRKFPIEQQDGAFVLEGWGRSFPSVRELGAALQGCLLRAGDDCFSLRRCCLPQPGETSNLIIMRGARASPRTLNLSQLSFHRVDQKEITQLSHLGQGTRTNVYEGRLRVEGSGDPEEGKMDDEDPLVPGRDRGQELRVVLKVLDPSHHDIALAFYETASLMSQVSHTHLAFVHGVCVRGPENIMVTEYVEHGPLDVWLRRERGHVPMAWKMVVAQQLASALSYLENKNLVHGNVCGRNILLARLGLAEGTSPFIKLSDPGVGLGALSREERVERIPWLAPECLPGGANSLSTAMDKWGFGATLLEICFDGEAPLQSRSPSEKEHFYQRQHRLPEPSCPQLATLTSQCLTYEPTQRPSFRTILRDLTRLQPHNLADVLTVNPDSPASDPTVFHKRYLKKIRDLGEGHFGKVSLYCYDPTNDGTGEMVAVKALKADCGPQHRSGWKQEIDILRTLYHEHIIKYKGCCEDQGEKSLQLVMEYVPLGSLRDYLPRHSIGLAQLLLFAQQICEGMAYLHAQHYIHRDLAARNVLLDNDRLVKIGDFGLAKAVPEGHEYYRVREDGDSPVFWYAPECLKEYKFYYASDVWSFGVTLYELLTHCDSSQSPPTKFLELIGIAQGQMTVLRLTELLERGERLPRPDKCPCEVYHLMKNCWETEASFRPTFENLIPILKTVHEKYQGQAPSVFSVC
Chain of Tyrosine-protein kinase JAK1 (P23458 whole entry, the tested form may be a part): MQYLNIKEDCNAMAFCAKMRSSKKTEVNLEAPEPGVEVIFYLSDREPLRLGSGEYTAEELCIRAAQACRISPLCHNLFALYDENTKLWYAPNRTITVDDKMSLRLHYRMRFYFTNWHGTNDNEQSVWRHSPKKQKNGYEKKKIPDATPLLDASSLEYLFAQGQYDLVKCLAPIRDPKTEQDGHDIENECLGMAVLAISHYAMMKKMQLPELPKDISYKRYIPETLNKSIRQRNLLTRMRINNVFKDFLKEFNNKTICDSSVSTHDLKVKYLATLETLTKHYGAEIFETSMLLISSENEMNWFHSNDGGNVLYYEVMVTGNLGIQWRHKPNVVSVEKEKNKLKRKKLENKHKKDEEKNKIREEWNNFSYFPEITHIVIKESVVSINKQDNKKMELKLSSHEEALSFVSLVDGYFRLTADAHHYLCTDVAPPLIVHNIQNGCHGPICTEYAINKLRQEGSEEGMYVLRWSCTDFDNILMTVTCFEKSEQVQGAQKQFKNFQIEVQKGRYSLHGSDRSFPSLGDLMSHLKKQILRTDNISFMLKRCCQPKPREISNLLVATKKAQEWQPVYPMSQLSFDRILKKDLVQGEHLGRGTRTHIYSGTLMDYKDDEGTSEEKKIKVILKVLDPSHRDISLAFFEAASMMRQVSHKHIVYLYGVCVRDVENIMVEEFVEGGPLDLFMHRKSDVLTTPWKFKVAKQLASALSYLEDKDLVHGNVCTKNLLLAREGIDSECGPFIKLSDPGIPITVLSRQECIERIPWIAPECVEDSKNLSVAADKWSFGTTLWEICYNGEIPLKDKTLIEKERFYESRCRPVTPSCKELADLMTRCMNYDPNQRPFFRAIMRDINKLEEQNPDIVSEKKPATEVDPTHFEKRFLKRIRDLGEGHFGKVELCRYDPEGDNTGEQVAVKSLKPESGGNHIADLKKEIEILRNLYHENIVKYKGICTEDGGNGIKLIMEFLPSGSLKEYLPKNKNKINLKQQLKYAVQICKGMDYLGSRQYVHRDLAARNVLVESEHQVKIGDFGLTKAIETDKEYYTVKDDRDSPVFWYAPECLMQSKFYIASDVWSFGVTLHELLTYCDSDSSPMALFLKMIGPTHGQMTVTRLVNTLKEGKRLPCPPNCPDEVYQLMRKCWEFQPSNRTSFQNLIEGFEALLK
Chain of JAK2/JAK1 (P23458 whole entry): as the sequence (P23458 whole entry, the tested form may be a part) above
Chain of JAK2/JAK1 (O60674 whole entry): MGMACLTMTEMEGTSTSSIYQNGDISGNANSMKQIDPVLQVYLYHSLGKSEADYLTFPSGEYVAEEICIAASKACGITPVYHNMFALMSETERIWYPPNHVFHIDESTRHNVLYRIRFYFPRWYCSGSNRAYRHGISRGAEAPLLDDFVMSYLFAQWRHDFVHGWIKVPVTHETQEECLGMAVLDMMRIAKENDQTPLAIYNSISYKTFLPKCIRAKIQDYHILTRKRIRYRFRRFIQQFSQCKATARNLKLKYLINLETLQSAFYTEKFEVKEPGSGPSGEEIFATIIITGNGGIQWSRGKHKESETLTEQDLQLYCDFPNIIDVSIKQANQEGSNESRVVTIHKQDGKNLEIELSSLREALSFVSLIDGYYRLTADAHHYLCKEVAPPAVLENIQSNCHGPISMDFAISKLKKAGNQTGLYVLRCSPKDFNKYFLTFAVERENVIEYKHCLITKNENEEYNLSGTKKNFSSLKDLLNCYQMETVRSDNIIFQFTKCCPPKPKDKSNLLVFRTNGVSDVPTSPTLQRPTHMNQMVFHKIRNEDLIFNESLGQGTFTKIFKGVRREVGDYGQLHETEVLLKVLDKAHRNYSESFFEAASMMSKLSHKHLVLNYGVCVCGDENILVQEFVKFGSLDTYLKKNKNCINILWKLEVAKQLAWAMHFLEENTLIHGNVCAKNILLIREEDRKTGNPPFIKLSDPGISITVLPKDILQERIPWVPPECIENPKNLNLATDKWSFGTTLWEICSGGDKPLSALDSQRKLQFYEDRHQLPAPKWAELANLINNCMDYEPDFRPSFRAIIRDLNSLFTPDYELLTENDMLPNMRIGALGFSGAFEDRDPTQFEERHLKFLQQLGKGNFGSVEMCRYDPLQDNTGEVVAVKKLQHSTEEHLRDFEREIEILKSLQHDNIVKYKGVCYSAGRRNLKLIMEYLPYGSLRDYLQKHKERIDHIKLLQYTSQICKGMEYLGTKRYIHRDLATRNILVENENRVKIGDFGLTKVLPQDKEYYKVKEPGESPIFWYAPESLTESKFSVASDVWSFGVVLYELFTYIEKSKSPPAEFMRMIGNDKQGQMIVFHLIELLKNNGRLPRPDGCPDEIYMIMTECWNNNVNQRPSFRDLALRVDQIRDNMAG
Chain of JAK1/TYK2 (P23458 whole entry): as the sequence (P23458 whole entry, the tested form may be a part) above
Chain of JAK1/TYK2 (P29597 whole entry): as the sequence (P29597 whole entry, the tested form may be a part) above
Chain of Mast/stem cell growth factor receptor Kit (P10721 whole entry, the tested form may be a part): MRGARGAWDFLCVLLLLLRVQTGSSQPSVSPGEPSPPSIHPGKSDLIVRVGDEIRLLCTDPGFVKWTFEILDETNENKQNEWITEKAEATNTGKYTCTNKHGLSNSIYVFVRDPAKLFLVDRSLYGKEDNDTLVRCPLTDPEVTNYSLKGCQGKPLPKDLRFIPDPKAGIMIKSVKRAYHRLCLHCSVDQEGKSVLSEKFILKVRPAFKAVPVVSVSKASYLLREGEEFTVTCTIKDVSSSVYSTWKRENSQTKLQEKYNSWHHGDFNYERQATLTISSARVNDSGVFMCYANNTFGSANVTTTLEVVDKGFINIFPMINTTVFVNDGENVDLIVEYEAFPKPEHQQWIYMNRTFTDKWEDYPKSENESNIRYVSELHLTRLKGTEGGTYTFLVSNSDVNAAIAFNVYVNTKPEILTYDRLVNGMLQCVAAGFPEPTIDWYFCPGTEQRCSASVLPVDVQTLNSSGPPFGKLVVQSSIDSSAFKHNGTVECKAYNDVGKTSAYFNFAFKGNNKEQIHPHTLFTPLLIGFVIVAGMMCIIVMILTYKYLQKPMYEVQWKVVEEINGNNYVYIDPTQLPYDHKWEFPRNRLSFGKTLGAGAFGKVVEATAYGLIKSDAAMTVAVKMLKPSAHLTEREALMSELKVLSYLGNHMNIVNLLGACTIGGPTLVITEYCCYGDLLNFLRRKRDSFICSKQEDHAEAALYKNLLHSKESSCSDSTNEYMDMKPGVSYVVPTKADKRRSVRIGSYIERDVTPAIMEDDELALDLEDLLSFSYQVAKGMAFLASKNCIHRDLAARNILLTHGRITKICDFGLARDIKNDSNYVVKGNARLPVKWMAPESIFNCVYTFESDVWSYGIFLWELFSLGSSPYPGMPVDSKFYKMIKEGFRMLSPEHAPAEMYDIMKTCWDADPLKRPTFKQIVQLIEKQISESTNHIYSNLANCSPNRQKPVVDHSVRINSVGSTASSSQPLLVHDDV
Chain of Tyrosine-protein kinase JAK2 (O60674 whole entry, the tested form may be a part): as the sequence (O60674 whole entry) above
Chain of JAK2/TYK2 (O60674 whole entry): as above
Chain of JAK2/TYK2 (P29597 whole entry): as the sequence (P29597 whole entry, the tested form may be a part) above

Row | Structure (SMILES) | IC50 (JAK1/TYK2) [nM] | efflux ratio [4] | IC50 [5] [nM] | IC50 (JAK2/TYK2) [nM] | IC50 [9] [nM] | Papp A→B [12] [×10⁻⁶ cm/s] | IC50 [15] [nM] | other results
1 | CNC(=O)c1cnc(Nc2ccccn2)cc1Nc1ccccc1S(C)(=O)=O | 57 | 9.8 | 250 | 71 | 0.95 | 10.2 | 630 | Cmax [1]: 1860 nM; logP [2]: 2.24; half-life [3]: 14 min; AUC(0-t) at 7 h [6]: 4.29 µM·h; half-life [7]: 3 min; half-life [8]: 13 min; half-life [10]: 25 min; IC50 [11]: 340 nM; IC50 [13]: 36 µM; half-life [14]: 53 min
2 | CCCC(=O)Nc1cc(Nc2ccccc2S(C)(=O)=O)c(C(=O)NC)cn1 | 2700 |  | 2500 | 2000 |  |  | > 2000 | 
3 | CS(=O)(=O)c1ccccc1Nc1cc(Nc2ccc(F)cn2)ncc1C(N)=O | 35 |  | 33 | 46 | 0.32 |  |  | IC50 [16]: 42 nM; IC50 [17]: 18 nM; IC50 [18]: 43 nM; remaining at 10 min [19]: 77%; remaining at 10 min [20]: 3%; IC50 (JAK2/JAK1): 0.26 µM; IC50 [11]: 83 nM; remaining at 10 min [21]: 80%; IC50 (JAK3/JAK1): 0.96 µM
4 | NC(=O)c1ccccc1Nc1cc(Nc2ccc(F)cn2)ncc1C(=O)NC1CC1 | 5600 |  |  | 3300 | 33 |  |  | IC50 [16]: > 2000 nM; IC50 [17]: > 2000 nM; IC50 [18]: > 2000 nM; IC50 (JAK2/JAK1): > 12.5 µM; IC50 (JAK3/JAK1): > 12.5 µM
5 | CNC(=O)c1cnc(Nc2ccc(F)cn2)cc1Nc1ccccc1SC | 240 | 0.5 | 3100 | 330 | 1.8 | 7.9 |  | IC50 [22]: 4.4 µM; remaining at 10 min [19]: 36%; remaining at 10 min [20]: 9%; remaining at 10 min [21]: 30%
6 | CNC(=O)c1cnc(NC(=O)C2CC2)cc1Nc1ccccc1S(C)(=O)=O | 390 | 29 | 310 | 430 | 1.6 | 1.7 | > 2000 | Cmax [1]: 190 nM; logP [2]: 1.89; half-life [3]: 10 min; AUC(0-t) at 7 h [6]: 0.56 µM·h; half-life [7]: 108 min; half-life [8]: 34 min; half-life [10]: 115 min; IC50 [11]: 830 nM; IC50 [13]: > 80 µM; half-life [14]: > 120 min
7 | CNC(=O)c1cnc(Nc2ncccc2F)cc1Nc1ccccc1C(N)=O | 1800 |  |  | 1300 | 5.9 |  |  | 
8 | CNC(=O)c1cnc(Nc2ccc(OC)cn2)cc1Nc1ccccc1S(C)(=O)=O |  |  |  |  |  | 2.9 | 830 | 
9 | CNC(=O)c1cnc(Nc2ccc(N3CCOCC3)cn2)cc1Nc1ccccc1S(C)(=O)=O | 59 | > 26 | 58 | 71 |  | < 1.5 | > 2000 | IC50 [13]: 40 µM
10 | CNC(=O)c1cnc(NC(=O)C(C)C)cc1Nc1ccccc1S(C)(=O)=O | 4400 |  | 5200 | 1100 |  |  | > 2000 | 
11 | CNC(=O)c1cnc(Nc2cc(C)ccn2)cc1Nc1ccccc1S(C)(=O)=O | 21 | 9 | 190 | 27 |  | 6.5 | > 2000 | IC50 [13]: 16 µM
12 | CNC(=O)c1cnc(Nc2ccccn2)cc1Nc1ccccc1C(N)=O | 310 |  |  | 280 | 1.6 |  |  | 
13 | CNC(=O)c1cnc(Nc2ncccn2)cc1Nc1ccccc1C(N)=O | > 12500 |  |  | > 12500 | 60 |  |  | 
14 | CCS(=O)(=O)c1ccccc1Nc1cc(Nc2ccc(F)cn2)ncc1C(=O)NC | 1000 | 6 | 4400 | 1900 | 8 | 5.3 |  | IC50 [22]: 4.6 µM; remaining at 10 min [19]: 91%; remaining at 10 min [20]: 76%; remaining at 10 min [21]: 43%
15 | CNC(=O)c1cnc(Nc2ccc(F)cn2)cc1Nc1ccccc1 | 5200 | 0.5 | > 10000 | 5600 | 11 | 29.3 |  | IC50 [22]: 4.5 µM; remaining at 10 min [19]: 51%; remaining at 10 min [20]: 65%; remaining at 10 min [21]: 37%
16 | CNC(=O)c1cnc(Nc2ccccc2)cc1Nc1ccccc1C(N)=O | 7600 |  |  | 6900 | 33 |  |  | 
17 | CNC(=O)c1cnc(Nc2ccc(C)nn2)cc1Nc1ccccc1S(C)(=O)=O | 320 | > 12 | 630 | 490 |  | < 1.5 | > 2000 | IC50 [13]: 43 µM
18 | CNC(=O)c1cnc(Nc2ccc(F)cn2)cc1Nc1ccccc1OC | 510 | 0.4 | 3300 | 310 | 5.2 | 26.7 |  | IC50 [22]: 9.2 µM; remaining at 10 min [19]: 52%; remaining at 10 min [20]: 28%; remaining at 10 min [21]: 35%
19 | CN(C)C(=O)c1cnc(Nc2ccc(F)cn2)cc1Nc1ccccc1C(N)=O | 12000 |  |  | 11000 | 87 |  |  | IC50 [16]: > 2000 nM; IC50 [17]: > 2000 nM; IC50 [18]: > 2000 nM; IC50 (JAK2/JAK1): > 12.5 µM; IC50 (JAK3/JAK1): > 12.5 µM
20 | CCNC(=O)c1cnc(Nc2ccc(F)cn2)cc1Nc1ccccc1C(N)=O | 2500 |  |  | 4100 | 13 |  |  | IC50 [16]: > 2000 nM; IC50 [17]: > 2000 nM; IC50 [18]: > 2000 nM; IC50 (JAK2/JAK1): > 12.5 µM; IC50 (JAK3/JAK1): > 12.5 µM
21 | [2H]C([2H])([2H])NC(=O)c1nnc(Nc2ccc(F)cn2)cc1Nc1ccccc1S(C)(=O)=O |  | 3.4 | 200 |  | 0.58 | 14.3 |  | Cmax [1]: 3890 nM; logP [2]: 2.77; half-life [3]: 50 min; AUC(0-t) at 7 h [6]: 11.6 µM·h; half-life [7]: 10 min; half-life [8]: 32 min; half-life [10]: 80 min; IC50 [11]: 380 nM; half-life [14]: 71 min
